{
  "source": "patent US20210196720A1",
  "about": "(UROVANT SCIENCES GMBH, priority 2018, published 2021)",
  "key": {"[1]": {"assay": "Multiple rising dose Phase 1 PK, healthy subjects, day 14 (young males unless stated)", "format": "in vivo, human", "from_the_text": "The steady state AUC geometric mean accumulation ratios were ˜2 in young male subjects and ˜2.8 in elderly subjects (male and female).\nAlthough exposures were similar in middle-aged males when compared to young males, plasma concentrations were higher in elderly compared to middle-aged and young subjects. […] Furthermore, the steady state AUC geometric mean accumulation ratios were ˜2 in young males and ˜2.8 in the elderly."}, "[2]": {"assay": "Capsule vs tablet single-dose crossover PK, 150 mg, healthy males", "format": "in vivo", "details": "male, human, plasma, oral", "from_the_text": "Tmax and the apparent terminal t1/2 were also similar between the two formulations."}, "[3]": {"assay": "Effect of food on oral absorption", "format": "in vivo, human", "details": "for Cmax / Tmax / AUC(0-t) / AUC(0-inf): human, plasma, oral; for AUC(0-t): read-out: AUC0-24"}, "[4]": {"assay": "Drug interaction: effect of conmed on vibegron PK", "format": "in vivo, human", "details": "for half-life / AUC / Cmax: human, oral; for half-life: read-out: GM t1/2 (converted); for AUC / Cmax: plasma", "from_the_text": "However, these interactions are not expected to be clinically significant."}, "[5]": {"assay": "Phase 2b OAB study, adverse events", "from_the_text": "A placebo group was included in the main study, and a group that received tolterodine monotherapy was included in the main study and in the extension."}, "[6]": {"assay": "Dose-Cmax and dose-AUC models / simulations for 75 mg", "parameters": "species or system human", "description": "In order to contextualize PK parameters of a 75 mg dose, dose-Cmax and dose-AUC models were created using data from Phase 1 studies."}, "[7]": {"details": "50 mg, high-fat meal, non-Japanese young males"}, "[8]": {"details": "50 mg, standard Japanese breakfast, Japanese young males"}, "[9]": {"details": "150 mg multiple dose, middle-aged and elderly females, Day 1"}, "[10]": {"details": "female, 150 mg, 150 mg multiple dose day 14, middle-aged females, fed"}, "[11]": {"details": "male, 50 mg, single 50 mg, Japanese young males, fed"}, "[12]": {"details": "male, 50 mg, single 50 mg, non-Japanese young males, fed"}, "[13]": {"details": "100 mg QD + tolterodine ER 4 mg QD"}, "[14]": {"details": "100 mg single + diltiazem ER 240 mg QD"}, "[15]": {"details": "100 mg single + ketoconazole 200 mg every 12 hours"}, "[16]": {"details": "100 mg, 100 mg QD alone (tolterodine study)"}, "[17]": {"details": "100 mg, 100 mg single, alone (diltiazem study)"}, "[18]": {"details": "100 mg, 100 mg single, alone (ketoconazole study)"}, "[19]": {"details": "150 mg QD + tolterodine ER 4 mg QD"}, "[20]": {"details": "150 mg, 150 mg QD alone (tolterodine study)"}, "[21]": {"details": "with multiple doses of diltiazem"}, "[22]": {"details": "75 mg, log-log regression of multiple-dose exposures"}},
  "note": "Values joined by “and” are separate entries in the source; they are usually repeats but may differ in a detail not shown here. Equal values may be shown once. Read-outs that look alike come from different tables or passages of the source.",
  "data": [
    {"smiles": "O=C(Nc1ccc(C[C@@H]2CC[C@H]([C@H](O)c3ccccc3)N2)cc1)[C@@H]1CCc2nccc(=O)n21", "note": "[Vibegron, (6S)-N-[4-[[(2S,5R)-5-[(R)-hydroxy(phenyl)methyl]pyrrolidin-2-yl]methyl]phenyl]-4-oxo-7,8-dihydro-6H-pyrrolo[1,2-a]pyrimidine-6-carboxamide]", "values": [
      {"measurement": "half-life", "setting": "[1]; male, human, plasma, oral, 400 mg, 400 mg QD, read-out: t1/2 (converted)", "value": "58.9 ± 5.9", "unit": "h"},
      {"measurement": "CL renal", "setting": "[1]; male, human, urine, oral, young males, all dose levels, read-out: renal clearance CLR at steady state", "value": "150 to 187", "unit": "mL/min"},
      {"measurement": "time to steady state", "setting": "[1]; once daily dosing", "value": "≤ 7", "unit": "days"},
      {"measurement": "AUC higher in females than males", "setting": "[1]; regardless of age", "value": 50, "unit": "%"},
      {"measurement": "AUC(0-inf)", "setting": "[2]; 1 × 150 mg capsule", "value": 2840, "unit": "ng·h/mL"},
      {"measurement": "Cmax", "setting": "[2]; 1 × 150 mg capsule", "value": 237, "unit": "ng/mL"},
      {"measurement": "AUC(0-inf)", "setting": "[2]; 3 × 50 mg tablets", "value": 2660, "unit": "ng·h/mL"},
      {"measurement": "Cmax", "setting": "[2]; 3 × 50 mg tablets", "value": 213, "unit": "ng/mL"},
      {"measurement": "AUC0-inf reduction, fed vs fasted", "setting": "[3]; [7]", "value": 46, "unit": "%"},
      {"measurement": "Cmax reduction, fed vs fasted", "setting": "[3]; [7]", "value": 67, "unit": "%"},
      {"measurement": "delay in Tmax, fed vs fasted", "setting": "[3]; [7]", "value": "~1", "unit": "h"},
      {"measurement": "AUC0-inf reduction, fed vs fasted", "setting": "[3]; [8]", "value": 37, "unit": "%"},
      {"measurement": "Cmax reduction, fed vs fasted", "setting": "[3]; [8]", "value": 52, "unit": "%"},
      {"measurement": "Ctrough", "setting": "[3]; 150 mg multiple dose day 14, middle-aged females, fed", "value": "65.3 ± 7.87", "unit": "ng/mL"},
      {"measurement": "AUC0-24 reduction with food vs fasted", "setting": "[3]; 150 mg multiple dose, females, Day 14", "value": "~20", "unit": "%"},
      {"measurement": "AUC0-24 with food compared to fasted", "setting": "[3]; [9]", "value": "~42", "unit": "%"},
      {"measurement": "Cmax with food compared to fasted", "setting": "[3]; [9]", "value": 59, "unit": "%"},
      {"measurement": "Cmax", "setting": "[3]; [10]", "value": "185 ± 32.3", "unit": "ng/mL"},
      {"measurement": "Tmax", "setting": "[3]; [10]", "value": 6, "unit": "h"},
      {"measurement": "AUC(0-t)", "setting": "[3]; [10]", "value": "2540 ± 334", "unit": "ng·h/mL"},
      {"measurement": "AUC(0-inf)", "setting": "[3]; [11]", "value": "605 ± 222", "unit": "ng·h/mL"},
      {"measurement": "Cmax", "setting": "[3]; [11]", "value": "36.2 ± 33.3", "unit": "ng/mL"},
      {"measurement": "AUC(0-t)", "setting": "[3]; [11]", "value": "226 ± 112", "unit": "ng·h/mL"},
      {"measurement": "AUC(0-inf)", "setting": "[3]; [12]", "value": "316 ± 127", "unit": "ng·h/mL"},
      {"measurement": "Cmax", "setting": "[3]; [12]", "value": "7.6 ± 2.27", "unit": "ng/mL"},
      {"measurement": "Tmax", "setting": "[3]; [12]", "value": 3, "unit": "h"},
      {"measurement": "AUC(0-t)", "setting": "[3]; [12]", "value": "90.7 ± 22.9", "unit": "ng·h/mL"},
      {"measurement": "half-life", "setting": "[4]; in vivo, 100 mg, vibegron alone", "value": 75, "unit": "h"},
      {"measurement": "half-life", "setting": "[4]; in vivo, with diltiazem", "value": 75.4, "unit": "h"},
      {"measurement": "half-life", "setting": "[4]; in vivo, with ketoconazole", "value": 80.2, "unit": "h"},
      {"measurement": "AUC", "setting": "[4]; [13]", "value": 1790, "unit": "ng·h/mL"},
      {"measurement": "Cmax", "setting": "[4]; [13]", "value": 163, "unit": "ng/mL"},
      {"measurement": "AUC", "setting": "[4]; [14]", "value": 2170, "unit": "ng·h/mL"},
      {"measurement": "Cmax", "setting": "[4]; [14]", "value": 167, "unit": "ng/mL"},
      {"measurement": "AUC", "setting": "[4]; [15]", "value": 2850, "unit": "ng·h/mL"},
      {"measurement": "Cmax", "setting": "[4]; [15]", "value": 251, "unit": "ng/mL"},
      {"measurement": "AUC", "setting": "[4]; [16]", "value": 1660, "unit": "ng·h/mL"},
      {"measurement": "Cmax", "setting": "[4]; [16]", "value": 158, "unit": "ng/mL"},
      {"measurement": "AUC", "setting": "[4]; [17]", "value": 1330, "unit": "ng·h/mL"},
      {"measurement": "Cmax", "setting": "[4]; [17]", "value": 99.8, "unit": "ng/mL"},
      {"measurement": "AUC", "setting": "[4]; [18]", "value": 1370, "unit": "ng·h/mL"},
      {"measurement": "Cmax", "setting": "[4]; [18]", "value": 113, "unit": "ng/mL"},
      {"measurement": "AUC", "setting": "[4]; [19]", "value": 3100, "unit": "ng·h/mL"},
      {"measurement": "Cmax", "setting": "[4]; [19]", "value": 304, "unit": "ng/mL"},
      {"measurement": "AUC", "setting": "[4]; [20]", "value": 2780, "unit": "ng·h/mL"},
      {"measurement": "Cmax", "setting": "[4]; [20]", "value": 269, "unit": "ng/mL"},
      {"measurement": "effect of tolterodine ER 4 mg on pharmacokinetics of vibegron", "setting": "[4]; in vivo", "value": "no effect"},
      {"measurement": "higher exposure", "setting": "[4]; with a potent CYP3A/P-gp inhibitor", "value": "~2", "unit": "fold"},
      {"measurement": "GM AUC0-inf increase", "setting": "[4]; [21]", "value": 63, "unit": "%"},
      {"measurement": "GM Cmax increase", "setting": "[4]; [21]", "value": 68, "unit": "%"},
      {"measurement": "tolerability", "setting": "[5]; Phase 2b, 3 to 100 mg", "value": "generally well tolerated"},
      {"measurement": "≥1 AE, subjects", "setting": "[5]; first 12 weeks, dose group by column", "value": 107, "unit": "n"},
      {"measurement": "frequency of injuries", "setting": "[5]; in vivo", "value": 0.9, "unit": "%"},
      {"measurement": "AUC of 75 mg lower than 200 mg single dose", "setting": "[6]", "value": "~2", "unit": "fold"},
      {"measurement": "AUC of 75 mg lower than 400 mg single dose", "setting": "[6]", "value": "~6", "unit": "fold"},
      {"measurement": "Cmax of 75 mg lower than 200 mg single dose", "setting": "[6]", "value": "approximately 3.3 fold"},
      {"measurement": "Cmax of 75 mg lower than 400 mg single dose", "setting": "[6]", "value": "~9.2", "unit": "fold"},
      {"measurement": "reduction in Cmax", "setting": "[6]; 75 mg vs 100 mg", "value": "~40", "unit": "%"},
      {"measurement": "calculated AUC (mean±SD)", "setting": "[6]; [22]", "value": "1140 ± 476", "unit": "ng·h/mL"},
      {"measurement": "calculated Cmax (mean±SD)", "setting": "[6]; [22]", "value": "120 ± 74.7 ng/mL and 120 ng/mL"},
      {"measurement": "Cmax", "setting": "[6]; 100 mg", "value": 206, "unit": "ng/mL"},
      {"measurement": "increase in Cmax", "setting": "[6]; dose increase from 50 to 100 mg", "value": "~3", "unit": "fold"}
    ]}
  ]
}
